Data as given in patent publication US5925666A, “Pharmaceutical compositions and methods for treating compulsive disorders using pyrrolidine derivatives” (Guilford Pharmaceuticals Inc., priority 1997, dated 1999).
“And” between values parts separate entries of the source, which are not always exact repeats. Equal entries are not always repeated.

Legend:
[1] = target: T1, cocaine binding site of the human dopamine transporter (Homo sapiens, UniProt Q01959); assay: [3H]CFT binding at the cocaine binding site, hDAT cells
T1 construct: expressed in transfected cells
T1 sequence (Q01959 whole entry): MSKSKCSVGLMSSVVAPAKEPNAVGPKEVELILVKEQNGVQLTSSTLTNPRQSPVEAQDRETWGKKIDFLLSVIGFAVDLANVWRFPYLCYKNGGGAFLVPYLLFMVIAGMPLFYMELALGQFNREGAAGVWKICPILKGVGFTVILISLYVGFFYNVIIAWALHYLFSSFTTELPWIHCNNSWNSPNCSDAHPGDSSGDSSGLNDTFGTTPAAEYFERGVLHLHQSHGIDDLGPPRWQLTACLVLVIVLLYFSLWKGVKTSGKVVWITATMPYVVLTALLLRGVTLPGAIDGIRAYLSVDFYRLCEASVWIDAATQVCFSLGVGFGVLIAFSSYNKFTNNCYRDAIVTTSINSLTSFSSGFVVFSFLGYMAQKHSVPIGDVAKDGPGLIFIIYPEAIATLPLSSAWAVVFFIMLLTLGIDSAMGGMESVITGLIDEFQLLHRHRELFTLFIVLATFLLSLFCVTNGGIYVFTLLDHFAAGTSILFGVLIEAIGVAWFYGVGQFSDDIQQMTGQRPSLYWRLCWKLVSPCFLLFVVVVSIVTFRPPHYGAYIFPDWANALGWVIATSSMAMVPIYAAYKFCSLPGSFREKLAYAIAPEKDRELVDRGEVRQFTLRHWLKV

[2] = tested on: alcohol-preferring (P) line of rats; assay: Inhibition of ethanol intake in alcohol-preferring rats; assay type: in vivo, rat; details: 30 mg/kg i.p.
Description: The effect of systemic administration of (R)-(+)-α,α-diphenyl-2-pyrrolidinemethanol on ethanol intake in the alcohol-preferring (P) line of rats was performed as previously described by Panocka et al., Pharm. Biochem. and Behavior, 1995, 52, 2, 255-259, and Murphy et al., Alcohol, 1985, 2, 349-352. In brief, (R)-(+)-α,α-diphenyl-2-pyrrolidinemethanol (30 mg/kg i.p.) was tested in female P rats (n=8) given daily 1 hour scheduled access to a 10% (v/v) ethanol solution. A within-subject design was used where (R)-(+)-α,α-diphenyl-2-pyrrolidinemethanol treatments were tested once per week. Baseline ethanol drinking consisted of the mean of the 3 days prior to testing in which saline injections were given. (R)-(+)-α,α-diphenyl-2-pyrrolidinemethanol or saline, administered i.p. in 1 ml/kg volumes, were injected 10-15 minutes prior to ethanol access. Twenty-four hour water and daily body weights were recorded to assess non-specific drug effects. Results were analyzed using paired t-tests with baseline and test day values serving as the independent variables. Ethanol intake was recorded as amount of solution consumed (mls).

Male Long-Evans rats = assay: Inhibition of nicotine self-administration in male Long-Evans rats; assay type: in vivo, rat; details: 10, 20 and 30 mg/kg i.p. 15 minutes before 60 minute session; nicotine 30 μg/kg/infusion; FIG. 1
Description: Male Long-Evans rats were trained to self-administer nicotine on a fixed ratio schedule of reinforcement, as described by Corrigall et al., Psychopharmacology, Vol. 104, No. 2, pp. 171-176 (1991) and Corrigall et al., Psychopharmacology, Vol. 107, Nos. 2-3, pp. 285-289 (1992). In brief, male Long-Evans rats were food deprived for a short period of time (24-48 hours) and trained to press a lever in an operant responding chamber on an FR-1 schedule of food reinforcement. Once trained, each rat was surgically prepared with a chronic intravenous catheter implanted into the jugular vein. The rats were allowed 1 week to recover from surgery.
After 1 week, nicotine self-administration studies were initiated on an FR-1 with a 60 second signaled time-out following each infusion. During time-out, responding on the lever had no scheduled consequence. Nicotine self-administration sessions were 60 minutes in duration. Each nicotine infusion contained 30 μg of nicotine/kg rat and were delivered in a volume of 54 μl over an infusion duration of 0.3 seconds. 15 minutes before the self-administration sessions, the rats were pre-treated intraperitoneally with (R)-(+)-α,α-diphenyl-2-pyrrolidinemethanol at doses of 10, 20 and 30 mg/kg.

[3] = target: T2, human dopamine transporter (Homo sapiens, UniProt Q01959); assay: [3H]Dopamine uptake inhibition, hDAT cells; assay type: cell-based; details: for Uptake to Binding Ratio (Kiuptake/Kibinding): ratio of Kiuptake to Kibinding at hDAT
T2 construct: expressed in transfected cells
T2 sequence (Q01959 whole entry): as above

[4] = individual rats P31-P40 (b249-b258 in order)

SMILES: OC(c1ccccc1)(c1ccccc1)[C@H]1CCCN1 [Compound 1, (R)-(+)-α,α-diphenyl-2-pyrrolidinemethanol]
- Ki [1]: 40 nM
- reduction of ethanol consumption ([2]; 1 hour access period, vs saline baseline, p<0.05): approximately 45%
- effect on water consumption ([2]; 24 hours following administration): no effect
- Post-drug Water 24 hr ([2]; Means of rats P31-P40): 25 mL
- Post-drug Weight ([2]; Means of rats P31-P40): 300 g
- Test Day Ethanol 1 hr (g/kg) ([2]; Means of rats P31-P40): 1.2 g/kg
- Test Day Ethanol 1 hr (ml) ([2]; Means of rats P31-P40): 4.5 mL
- effect on body weights ([2]; P rats): not altered
- 1 hour ethanol consumption ([2]; female P rats, 10% (v/v) ethanol, mean ± S.E.M., saline baseline 8.2±0.8 mls, p<0.05): 4.5±1.2 mls
- 24 hour water intake ([2]; female P rats, mean ± S.E.M., saline baseline 28±2.2 mls): 25±2.1 mls
- 24 hour body weights ([2]; female P rats, mean ± S.E.M., saline baseline 310±6.1 g): 300 ± 6.2 g
- Post-drug Water 24 hr [2, 4]: 23 mL and 26 mL and 28 mL and 32 mL and 18 mL and 12 mL
- Post-drug Weight [2, 4]: 329 g and 291 g and 294 g and 305 g and 290 g and 297 g and 312 g and 263 g and 323 g
- Test Day Ethanol 1 hr (g/kg) [2, 4]: 1.9 g/kg and 0.3 g/kg and 0.5 g/kg and 2.4 g/kg and 1.0 g/kg and 0.8 g/kg and 0 g/kg
- Test Day Ethanol 1 hr (ml) [2, 4]: 8 mL and 7 mL and 1 mL and 2 mL and 10 mL and 9 mL and 4 mL and 3 mL and 0 mL
- nicotine self-administration (Male Long-Evans rats): dose-dependently attenuated
- Ki [3]: 170 nM
- Uptake to Binding Ratio (Kiuptake/Kibinding) [3]: 4.25

SMILES: OC(c1ccccc1)(c1ccccc1)[C@@H]1CCCN1 [Compound 2, (S)-(-)-α,α-diphenyl-2-pyrrolidinemethanol]
- Ki [1]: 400 nM
- Ki [3]: 1650 nM
- Uptake to Binding Ratio (Kiuptake/Kibinding) [3]: 4.12

SMILES: CCCN1CCC[C@H]1C(O)(c1ccccc1)c1ccccc1 [Compound 3, (S)-(-)-1-propyl-α,α-diphenyl-2-pyrrolidinemethanol]
- Ki [1]: 3300 nM
- Ki [3]: 10300 nM
- Uptake to Binding Ratio (Kiuptake/Kibinding) [3]: 3.12

SMILES: Cc1cc(C(O)(c2ccc(F)c(C)c2)[C@@H]2CCCN2)ccc1F [Compound 4, (S)-α,α-Bis(3-methyl-4-fluorophenyl)-2-pyrrolidinemethanol]
- Ki [1]: 260 nM
- Ki [3]: 440 nM
- Uptake to Binding Ratio (Kiuptake/Kibinding) [3]: 1.69
